# Measurements from patent publication US20240398828A1, “HETERO-ATOM CONTAINING COMPOUNDS AND USES THEREOF” (Kumquat Biosciences Inc., priority 2021, published 2024).
# Key:
# PTPN2 (i.e., TC-PTP) = biological target: T1, PTPN2 (i.e., TC-PTP) (Homo sapiens, UniProt P17706); assay: Phosphatase activity assay (DiFMUP substrate), PTPN2; format: biochemical; conditions: compounds binned ≤1 uM or >1 uM
# T1 sequence (P17706 1-415): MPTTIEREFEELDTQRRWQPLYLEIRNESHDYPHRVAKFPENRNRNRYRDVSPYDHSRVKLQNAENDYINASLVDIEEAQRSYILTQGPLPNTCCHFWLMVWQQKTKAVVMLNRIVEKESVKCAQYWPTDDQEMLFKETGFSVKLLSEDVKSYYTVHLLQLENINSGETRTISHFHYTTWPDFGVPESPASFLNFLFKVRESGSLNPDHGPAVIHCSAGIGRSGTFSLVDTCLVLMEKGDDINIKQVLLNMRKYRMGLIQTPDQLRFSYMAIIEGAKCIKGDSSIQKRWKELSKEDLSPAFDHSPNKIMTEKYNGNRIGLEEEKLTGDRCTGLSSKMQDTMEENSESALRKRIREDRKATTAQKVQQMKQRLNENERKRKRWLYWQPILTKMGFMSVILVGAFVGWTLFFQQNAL
# How it was run: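 Continuous fluorogenic readout of DiFMUP dephosphorylation at room temperature, substrate set at Km for each phosphatase (about 45 μM in the PTPN2 assay). The buffer contains 1 mM DTT and 0.001% Tween-20, pH 7.5.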
# PTPN1 (i.e., PTP1B) = biological target: T2, PTPN1 (i.e., PTP1B) (Homo sapiens, UniProt P18031); assay: Phosphatase activity assay (DiFMUP substrate), PTP1B; format: biochemical; conditions: compounds binned ≤1 uM or >1 uM
# T2 sequence (P18031 1-435): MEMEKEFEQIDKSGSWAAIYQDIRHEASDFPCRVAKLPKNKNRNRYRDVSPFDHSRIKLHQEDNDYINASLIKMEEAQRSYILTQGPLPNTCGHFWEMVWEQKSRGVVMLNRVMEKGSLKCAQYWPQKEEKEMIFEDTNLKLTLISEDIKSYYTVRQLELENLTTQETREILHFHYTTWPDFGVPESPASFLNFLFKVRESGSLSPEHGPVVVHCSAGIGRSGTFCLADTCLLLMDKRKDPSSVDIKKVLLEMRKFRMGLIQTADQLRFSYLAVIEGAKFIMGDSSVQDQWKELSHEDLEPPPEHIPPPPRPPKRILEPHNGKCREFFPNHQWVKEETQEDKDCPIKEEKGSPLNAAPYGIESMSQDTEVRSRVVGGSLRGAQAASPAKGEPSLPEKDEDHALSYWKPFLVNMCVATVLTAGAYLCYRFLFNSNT
# How it was run: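 Read-out is continuous fluorescence of DiFMU (360 nm excitation, 450 nm emission) over about 15-30 minutes, with DiFMUP substrate at the enzyme's independently determined Km (PTPN2 approx. 45 μM final). Buffer: 50 mM HEPES pH 7.5, 150 mM NaCl, 0.5 mM EDTA, 1 mM DTT, 0.001% Tween-20, room temperature; initial rates versus 10-point dilution fitted for IC50, at least duplicate.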
SMILES,"IC50 (PTPN2 (i.e., TC-PTP))","IC50 (PTPN1 (i.e., PTP1B))"
"O=C1CN(c2c(O)ccc(C3CCN(C4CC4)CC3)c2F)S(=O)(=O)N1 [Compound 353, 5-(3-(1-cyclopropylpiperidin-4-yl)-2-fluoro-6-hydroxyphenyl)-1,2,5-thiadiazolidin-3-one 1,1-dioxide]",≤ 1 µM,≤ 1 µM
"CC#Cc1cc(-c2ccc(O)c(N3CC(=O)NS3(=O)=O)c2F)[nH]n1 [Compound 354, 5-(2-fluoro-6-hydroxy-3-(3-(prop-1-yn-1-yl)-1H-pyrazol-5-yl)phenyl)-1,2,5-thiadiazolidin-3-one 1,1-dioxide]",≤ 1 µM,≤ 1 µM
"O=C1CN(c2c(O)ccc(C3=CCN(S(=O)(=O)C4CC4)CC3)c2F)S(=O)(=O)N1 [Compound 355, 5-(3-(1-(cyclopropylsulfonyl)-1,2,3,6-tetrahydropyridin-4-yl)-2-fluoro-6-hydroxyphenyl)-1,2,5-thiadiazolidin-3-one 1,1-dioxide]",≤ 1 µM,≤ 1 µM
"O=C1CN(c2c(O)ccc(-c3cc(N4CC(c5ccccc5)C4)n[nH]3)c2F)S(=O)(=O)N1 [Compound 356, 5-(2-fluoro-6-hydroxy-3-(3-(3-phenylazetidin-1-yl)-1H-pyrazol-5-yl)phenyl)-1,2,5-thiadiazolidin-3-one 1,1-dioxide]",≤ 1 µM,≤ 1 µM
"N#C[C@H]1CC[C@@H](n2cnc(-c3ccc(O)c(N4CC(=O)NS4(=O)=O)c3F)c2)CC1 [Compound 357, (1s,4s)-4-(4-(3-(1,1-dioxido-4-oxo-1,2,5-thiadiazolidin-2-yl)-2-fluoro-4-hydroxyphenyl)-1H-imidazol-1-yl)cyclohexane-1-carbonitrile]",≤ 1 µM,≤ 1 µM
"Cc1cc(O)c(N2CC(=O)NS2(=O)=O)cc1-c1cnn(C)c1 [Compound 358, 5-(2-hydroxy-4-methyl-5-(1-methyl-1H-pyrazol-4-yl)phenyl)-1,2,5-thiadiazolidin-3-one 1,1-dioxide]",> 1 µM,> 1 µM
"O=C1CN(c2c(O)ccc(C3CCN(S(=O)(=O)C4CC4)C3)c2F)S(=O)(=O)N1 (stereo not shown) [Compound 359, 5-(3-(1-(cyclopropylsulfonyl)pyrrolidin-3-yl)-2-fluoro-6-hydroxyphenyl)-1,2,5-thiadiazolidin-3-one 1,1-dioxide]",≤ 1 µM,≤ 1 µM
"O=C1CN(c2c(O)ccc(-c3cnn(C4CCCCCC4)c3)c2F)S(=O)(=O)N1 [Compound 360, 5-(3-(1-cycloheptyl-1H-pyrazol-4-yl)-2-fluoro-6-hydroxyphenyl)-1,2,5-thiadiazolidin-3-one 1,1-dioxide]",≤ 1 µM,≤ 1 µM
"N#Cc1cccc(-n2cnc(-c3ccc(O)c(N4CC(=O)NS4(=O)=O)c3F)c2)c1 [Compound 361, 3-(4-(3-(1,1-dioxido-4-oxo-1,2,5-thiadiazolidin-2-yl)-2-fluoro-4-hydroxyphenyl)-1H-imidazol-1-yl)benzonitrile]",≤ 1 µM,≤ 1 µM
"O=C1CN(c2c(O)ccc(-c3cc(C4=CCOC4)n[nH]3)c2F)S(=O)(=O)N1 [Compound 362, 5-(3-(3-(2,5-dihydrofuran-3-yl)-1H-pyrazol-5-yl)-2-fluoro-6-hydroxyphenyl)-1,2,5-thiadiazolidin-3-one 1,1-dioxide]",≤ 1 µM,≤ 1 µM
"CS(=O)(=O)NC1CC=C(c2ccc(O)c(N3CC(=O)NS3(=O)=O)c2F)CC1 (stereo not shown) [Compound 363, N-(3′-(1,1-dioxido-4-oxo-1,2,5-thiadiazolidin-2-yl)-2′-fluoro-4′-hydroxy-2,3,4,5-tetrahydro-[1,1′-biphenyl]-4-yl)methanesulfonamide]",≤ 1 µM,≤ 1 µM
"O=C1CN(c2c(O)ccc(-c3cc(C4CC4(F)F)n[nH]3)c2F)S(=O)(=O)N1 (stereo not shown) [Compound 364, 5-(3-(3-(2,2-difluorocyclopropyl)-1H-pyrazol-5-yl)-2-fluoro-6-hydroxyphenyl)-1,2,5-thiadiazolidin-3-one 1,1-dioxide]",≤ 1 µM,≤ 1 µM
"N#CCc1cc(-c2ccc(O)c(N3CC(=O)NS3(=O)=O)c2F)[nH]n1 [Compound 365, 2-(5-(3-(1,1-dioxido-4-oxo-1,2,5-thiadiazolidin-2-yl)-2-fluoro-4-hydroxyphenyl)-1H-pyrazol-3-yl)acetonitrile]",≤ 1 µM,≤ 1 µM
"O=C1CN(c2c(O)ccc(-c3cnn(CC(F)(F)F)c3)c2F)S(=O)(=O)N1 [Compound 366, 5-(2-fluoro-6-hydroxy-3-(1-(2,2,2-trifluoroethyl)-1H-pyrazol-4-yl)phenyl)-1,2,5-thiadiazolidin-3-one 1,1-dioxide]",≤ 1 µM,≤ 1 µM
"Cn1nc(-c2ccc(O)c(N3CC(=O)NS3(=O)=O)c2F)cc1C1CC1 [Compound 367, 5-(3-(5-cyclopropyl-1-methyl-1H-pyrazol-3-yl)-2-fluoro-6-hydroxyphenyl)-1,2,5-thiadiazolidin-3-one 1,1-dioxide]",≤ 1 µM,≤ 1 µM
"CC(C)(C#N)c1cc(-c2ccc(O)c(N3CC(=O)NS3(=O)=O)c2F)[nH]n1 [Compound 368, 2-(5-(3-(1,1-dioxido-4-oxo-1,2,5-thiadiazolidin-2-yl)-2-fluoro-4-hydroxyphenyl)-1H-pyrazol-3-yl)-2-methylpropanenitrile]",≤ 1 µM,≤ 1 µM
"CCC1(c2cc(-c3ccc(O)c(N4CC(=O)NS4(=O)=O)c3F)[nH]n2)CC1 [Compound 369, 5-(3-(3-(1-ethylcyclopropyl)-1H-pyrazol-5-yl)-2-fluoro-6-hydroxyphenyl)-1,2,5-thiadiazolidin-3-one 1,1-dioxide]",≤ 1 µM,≤ 1 µM
"CC(C)Cc1cc(-c2ccc(O)c(N3CC(=O)NS3(=O)=O)c2F)[nH]n1 [Compound 370, 5-(2-fluoro-6-hydroxy-3-(3-isobutyl-1H-pyrazol-5-yl)phenyl)-1,2,5-thiadiazolidin-3-one 1,1-dioxide]",≤ 1 µM,≤ 1 µM
"O=C1CN(c2c(O)ccc(-c3cc(C4CCCCC4)n[nH]3)c2F)S(=O)(=O)N1 [Compound 371, 5-(3-(3-cyclohexyl-1H-pyrazol-5-yl)-2-fluoro-6-hydroxyphenyl)-1,2,5-thiadiazolidin-3-one 1,1-dioxide]",≤ 1 µM,≤ 1 µM
"COCC1CCCN1c1cc(-c2ccc(O)c(N3CC(=O)NS3(=O)=O)c2F)[nH]n1 (stereo not shown) [Compound 372, 5-(2-fluoro-6-hydroxy-3-(3-(2-(methoxymethyl)pyrrolidin-1-yl)-1H-pyrazol-5-yl)phenyl)-1,2,5-thiadiazolidin-3-one 1,1-dioxide]",≤ 1 µM,≤ 1 µM
"N#CCCc1cc(-c2ccc(O)c(N3CC(=O)NS3(=O)=O)c2F)n[nH]1 [Compound 373, 3-(3-(3-(1,1-dioxido-4-oxo-1,2,5-thiadiazolidin-2-yl)-2-fluoro-4-hydroxyphenyl)-1H-pyrazol-5-yl)propanenitrile]",≤ 1 µM,≤ 1 µM
"CC(C)S(=O)(=O)Nc1ccc(-c2ccc(O)c(N3CC(=O)NS3(=O)=O)c2F)cc1 [Compound 374, N-(3′-(1,1-dioxido-4-oxo-1,2,5-thiadiazolidin-2-yl)-2′-fluoro-4′-hydroxy-[1,1′-biphenyl]-4-yl)propane-2-sulfonamide]",≤ 1 µM,≤ 1 µM
"Cc1n[nH]c(-c2ccc(O)c(N3CC(=O)NS3(=O)=O)c2F)c1C [Compound 375, 5-(3-(3,4-dimethyl-1H-pyrazol-5-yl)-2-fluoro-6-hydroxyphenyl)-1,2,5-thiadiazolidin-3-one 1,1-dioxide]",≤ 1 µM,≤ 1 µM
"CC(=O)N(C)C1CC=C(c2ccc(O)c(N3CC(=O)NS3(=O)=O)c2F)CC1 (stereo not shown) [Compound 377, N-(3′-(1,1-dioxido-4-oxo-1,2,5-thiadiazolidin-2-yl)-2′-fluoro-4′-hydroxy-2,3,4,5-tetrahydro-[1,1′-biphenyl]-4-yl)-N-methylacetamide]",≤ 1 µM,≤ 1 µM
"O=C1CN(c2c(O)ccc(C3=CCCN(C4CC4)C3)c2F)S(=O)(=O)N1 [Compound 378, 5-(3-(1-cyclopropyl-1,2,5,6-tetrahydropyridin-3-yl)-2-fluoro-6-hydroxyphenyl)-1,2,5-thiadiazolidin-3-one 1,1-dioxide]",≤ 1 µM,≤ 1 µM
"CC(C)c1cc(-c2ccc(O)c(N3CC(=O)NS3(=O)=O)c2F)[nH]n1 [Compound 379, 5-(2-fluoro-6-hydroxy-3-(3-isopropyl-1H-pyrazol-5-yl)phenyl)-1,2,5-thiadiazolidin-3-one 1,1-dioxide]",≤ 1 µM,≤ 1 µM
